Assay: xn = mol fraction of the nth substance listed

COCCO + OCCO
viscosity [mPa·s], 101 kPa
Conditions	x2 = 0.1359	x2 = 0.2614	x2 = 0.3776	x2 = 0.4859	x2 = 0.5861	x2 = 0.6799	x2 = 0.7676	x2 = 0.8499	x2 = 0.9272
293.15 K	2.281	3.192	3.871	5.319	6.607	8.77	10.8	14	17.35
298.15 K	2.034	2.799	3.383	4.577	5.633	7.281	9.021	11.5	14.18
303.15 K	1.826	2.471	2.981	3.965	4.84	6.282	7.583	9.579	11.66
308.15 K	1.652	2.2	2.644	3.468	4.194	5.372	6.436	8.035	9.727
313.15 K	1.494	1.97	2.364	3.051	3.663	4.643	5.522	6.84	8.193
318.15 K	1.359	1.775	2.14	2.718	3.218	4.04	4.701	5.855	6.98
323.15 K	1.241	1.604	1.938	2.399	2.851	3.547	4.102	5.049	5.979

COCCO + Cc1ccc(C)cc1
viscosity [mPa·s], 101 kPa
Conditions	298.15 K	308.15 K
x1 = 0.0528	0.626	0.549
x1 = 0.1469	0.654	0.57
x1 = 0.2507	0.696	0.601
x1 = 0.3484	0.746	0.639
x1 = 0.4499	0.812	0.688
x1 = 0.4999	0.85	0.716
x1 = 0.5542	0.897	0.75
x1 = 0.6493	0.994	0.82
x1 = 0.7508	1.122	0.913
x1 = 0.8478	1.274	1.021
x1 = 0.9556	1.488	1.17

CCCCNCCCC + C1CCCCC1
viscosity [mPa·s], 101 kPa
Conditions	303.15 K	313.15 K
x1 = 0.01094	0.8102	0.7072
x1 = 0.02041	0.8023	0.6959
x1 = 0.02983	0.7945	0.6867
x1 = 0.03917	0.7871	0.6761
x1 = 0.04929	0.7755	0.6665
x1 = 0.05831	0.7665	0.6583
x1 = 0.06895	0.7585	0.6494
x1 = 0.07966	0.7491	0.6406
x1 = 0.08806	0.742	0.6327
x2 = 0.1011	0.749	–
x2 = 0.2001	0.737	–
x2 = 0.3025	0.731	–
x2 = 0.4034	0.728	–
x2 = 0.4997	0.727	–
x2 = 0.605	0.729	–
x2 = 0.7025	0.727	–
x2 = 0.7989	0.743	–
x2 = 0.8971	0.759	–

CCCCNCCCC + ClC(Cl)Cl
298.15 K, 101.3 kPa
Conditions	viscosity [mPa·s]
x1 = 0.102	0.639
x1 = 0.199	0.717
x1 = 0.3088	0.803
x1 = 0.3714	0.845
x1 = 0.4997	0.904
x1 = 0.6082	0.925
x1 = 0.698	0.907
x1 = 0.7719	0.89
x1 = 0.9007	0.852
